Assay results as given in article PMC3306499 (ACS Chemical Biology, 2012).
Where a name gives a salt, the structure may show the parent alone. Read-outs that look alike come from different tables or passages of the source.

Assays:
[1] = biological target: human A3G (APOBEC3G) (Homo sapiens, UniProt Q9HC16); test: fluorescence-based ssDNA cytosine deaminase assay, A3G; type: biochemical
[2] = biological target: human A3A (APOBEC3A) (Homo sapiens, UniProt P31941); test: fluorescence-based ssDNA cytosine deaminase assay, A3A; type: biochemical
[3] = biological target: E. coli uracil DNA glycosylase (UDG) (Escherichia coli, UniProt P12295); test: UDG assay; type: biochemical
[4] = biological target: A3G-ssDNA complex (Homo sapiens, UniProt Q9HC16); test: EMSA of A3G-ssDNA complex formation; type: binding; details: 0.64 μM A3G, 0.08 μM ssDNA, 50 μM compound, dose response 2, 5, 10 μM
[5] = cited from earlier work
[6] = biological target: HIV-1 RNase H (Human immunodeficiency virus type 1 group M subtype B, UniProt P04585); test: HIV-1 RNase H inhibition assay; type: biochemical
[7] = biological target: HIV-1 integrase (Human immunodeficiency virus type 1 group M subtype B, UniProt P04585); test: concerted HIV-1 integration assay; type: biochemical
[8] = test system: A3A-loop 6 (C321 loop of A3G swapped into A3A); test: deaminase assay with A3A-loop 6 swap mutant; type: biochemical, human; details: 50 μM compound
[9] = biological target: HIV RNase H; details: read-out: IC50 Values RNase H; published value; cited from earlier work
[10] = read-out: IC50 Values A3G, dose response, purified full-length A3G-mycHis
[11] = read-out: IC50 Values A3A, dose response, purified A3A-mycHis
[12] = read-out: IC50 Values UDG, no deaminase, uracil ssDNA substrate
[13] = read-out: IC50 Values RNase H, A3G inhibitors, this study

Sequence of E. coli uracil DNA glycosylase (UDG) (P12295 whole entry): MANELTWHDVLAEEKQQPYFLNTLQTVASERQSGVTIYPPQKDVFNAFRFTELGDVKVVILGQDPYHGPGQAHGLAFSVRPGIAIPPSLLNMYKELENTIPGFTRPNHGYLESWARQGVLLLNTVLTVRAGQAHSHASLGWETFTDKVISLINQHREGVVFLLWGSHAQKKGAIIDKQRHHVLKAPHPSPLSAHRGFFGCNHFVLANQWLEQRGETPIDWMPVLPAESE
Sequence of human A3G (APOBEC3G) (Q9HC16 whole entry): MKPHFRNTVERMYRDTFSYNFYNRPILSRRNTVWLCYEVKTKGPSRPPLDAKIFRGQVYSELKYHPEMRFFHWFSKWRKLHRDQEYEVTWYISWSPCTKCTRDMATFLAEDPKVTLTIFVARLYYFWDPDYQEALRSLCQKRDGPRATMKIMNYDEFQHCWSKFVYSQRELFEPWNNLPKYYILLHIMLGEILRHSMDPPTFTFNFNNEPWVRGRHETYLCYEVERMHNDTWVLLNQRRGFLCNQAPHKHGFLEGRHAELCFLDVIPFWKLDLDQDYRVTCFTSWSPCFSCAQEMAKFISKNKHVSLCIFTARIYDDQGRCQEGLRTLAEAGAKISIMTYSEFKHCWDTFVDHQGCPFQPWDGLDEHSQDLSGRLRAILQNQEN
Sequence of human A3A (APOBEC3A) (P31941 whole entry): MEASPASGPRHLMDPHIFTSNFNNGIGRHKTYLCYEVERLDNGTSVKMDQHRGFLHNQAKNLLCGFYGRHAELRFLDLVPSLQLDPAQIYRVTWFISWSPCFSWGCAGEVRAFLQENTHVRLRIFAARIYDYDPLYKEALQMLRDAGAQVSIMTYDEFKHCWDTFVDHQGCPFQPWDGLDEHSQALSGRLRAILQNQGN
Sequence of A3G-ssDNA complex (Q9HC16 whole entry, one chain of several): as the sequence (Q9HC16 whole entry) above

CN(N=O)c1cc(O)ccc1O [MN10, Dephostatin]
IC50 [1]: 0.43 µM
IC50 [2]: 150 µM
IC50 [3]: > 200 µM
inhibition of A3G's ssDNA binding activity (A3G-ssDNA complex formation) [4]: only exceptions
stability [5]: too unstable for most biological applications

O=C(O)Cc1ccc(O)c(O)c1 [MN12, 3,4-Dihydroxyphenylacetic acid]
IC50 [1]: 19 µM
IC50 [2]: > 200 µM
IC50 [3]: > 200 µM

CCCN1CCc2cccc3c2[C@H]1Cc1ccc(O)c(O)c1-3 [MN14, R(−)-Propylnorapomorphine hydrochloride]
IC50 [1, 10]: 6.4 µM
IC50 [2, 11]: > 200 µM

CN1CCc2cc(O)cc3c2[C@H]1Cc1ccc(O)c(O)c1-3 [MN16, R(−)-2,10,11-Trihydroxyaporphine hydrobromide]
IC50 [1, 10]: 1.7 µM
IC50 [2, 11]: > 200 µM
IC50 [3, 12]: > 200 µM
IC50 [6, 13]: > 25000 nM

CCCN1CCc2cc(O)cc3c2[C@H]1Cc1ccc(O)c(O)c1-3 [MN17, R(−)-2,10,11-Trihydroxy-N-propylnoraporphine hydrobromide hydrate]
IC50 [1, 10]: 13 µM
IC50 [2, 11]: > 200 µM

Oc1ccc(O)cc1 [MN21, Hydroquinone]
IC50 [2]: > 200 µM

Oc1ccc(Cn2cc[nH]c2=S)cc1 [MN22, 1-(4-Hydroxybenzyl)imidazole-2-thio]
IC50 [2, 11]: > 200 µM
IC50 [3, 12]: > 200 µM

O=c1cc(O)cc(/C=C/c2ccc(O)c(O)c2)o1 [MN24, Hispidin]
IC50 [1]: 2 µM
IC50 [2]: > 200 µM
IC50 [3]: > 200 µM
inhibitory activity against RNase H (in words) [6]: modest micromolar inhibitory activity
IC50 [7]: > 25 µM

CN[C@@H](C)[C@H](O)c1ccccc1 [MN25, (1R,2S)-(−)-Ephedrine]
IC50 [1, 10]: 1.3 µM
IC50 [2, 11]: 54 µM

OC[C@H]1O[C@H]([S-])[C@H](O)[C@@H](O)[C@@H]1O.[Au+] [MN26, Aurothioglucose hydrate]
IC50 [1, 10]: 0.36 µM
IC50 [2, 11]: > 200 µM
IC50 [3, 12]: > 200 µM

O=c1c(O)c(-c2cc(O)c(O)c(O)c2)oc2cc(O)cc(O)c12 [MN27, Myricetin]
IC50 [1]: 3.4 µM
inhibition of A3G catalytic activity (in words) [1]: inhibit A3G catalytic activity
inhibition of A3A (in words) [2]: inhibit A3A
IC50 [3]: > 200 µM

CC(Cc1ccc(O)c(O)c1)C(C)Cc1ccc(O)c(O)c1 (stereo not drawn) [MN31, Nordihydroguaiaretic acid]
IC50 [1, 10]: 8.8 µM
IC50 [2, 11]: > 200 µM

Oc1cc(O)cc(/C=C/c2ccc(O)c(O)c2)c1 [MN32, Piceatannol]
IC50 [1]: 1.8 µM
IC50 [2]: 200 µM
IC50 [3]: > 200 µM
IC50 [6]: 390 nM
IC50 [7]: > 25 µM
inhibition of A3A-loop 6 deaminase activity [8]: very little inhibition

Cc1nc(N=Nc2cc(S(=O)(=O)O)c3cc([N+](=O)[O-])cc(S(=O)(=O)O)c3c2)c(COP(=O)(O)O)c(C=O)c1O [MN33, PPNDS tetrasodium]
IC50 [1, 10]: 5.6 µM
IC50 [2, 11]: 3.3 µM

CN=c1nc(-c2ccccc2)n(-c2ccccc2)s1 [MN34, SCH-202676 hydrobromide]
IC50 [1, 10]: 29 µM
IC50 [2, 11]: 310 µM
IC50 [3, 12]: > 200 µM

Br.Oc1ccc(C2CNCc3sccc32)cc1O (stereo not drawn) [MN35, SKF-89626 hydrobromide]
IC50 [1, 10]: 1.3 µM
IC50 [2, 11]: > 200 µM
IC50 [3, 12]: > 200 µM
inhibitory activity against RNase H (in words) [6]: modest micromolar inhibitory activity
IC50 [6, 13]: 2200 nM
inhibition of A3G's ssDNA binding activity (A3G-ssDNA complex formation) [4]: only exceptions

O=C(O)[C@]1(O)C[C@@H](O)[C@@H](O)[C@H](O)C1 [Quinic Acid, reference compound]
IC50 [1]: > 100 µM
inhibition of A3G catalytic activity (in words) [1]: no effect

CC(C)c1ccc(O)c(=O)c(O)c1 [β-Thujaplicinol, reference compound]
IC50 [1]: > 100 µM
IC50 [9]: 210 nM

Manicol [reference compound]
IC50 [1, 10]: > 100 µM
IC50 [9]: 600 nM

R(−)-N-Allylnorapomorphine hydrobromide [MN11]
IC50 [1, 10]: 2.9 µM
IC50 [2, 11]: > 200 µM
